Assays:
d(TG4T) (DNA, G4) TGGGGT [1] = assay: ITC; settings: 60 mM KCl, 10 mM sodium cacodylate, 0.5 mM EDTA, pH 7.0, 20 °C
[2] = tested on: d(UG4T) (DNA, G4, 2'-deoxyuridine at 1) UGGGGT; assay: ITC; settings: 60 mM KCl; 10 mM sodium cacodylate, 0.5 mM EDTA, pH 7.0, 20 °C
[3] = tested on: d(T2G4T2) (DNA, G4) TTGGGGTT; assay: ITC; settings: 60 mM KCl; 10 mM sodium cacodylate, 0.5 mM EDTA, pH 7.0, 20 °C
[4] = tested on: d(T3G4T3) (DNA, G4) TTTGGGGTTT; assay: ITC; settings: 60 mM KCl; 10 mM sodium cacodylate, 0.5 mM EDTA, pH 7.0, 20 °C; one binding event, isotherm not fitted
[5] = tested on: d(T4G4T4) (DNA, G4) TTTTGGGGTTTT; assay: ITC; settings: 90 mM KCl; 10 mM sodium cacodylate, 0.5 mM EDTA, pH 7.0, 20 °C; one binding event, isotherm not fitted
[6] = tested on: CEB1 (DNA, G4) AGGGGGGAGGGAGGGTGG; assay: ITC; settings: 60 mM KCl; 10 mM sodium cacodylate, 0.5 mM EDTA, pH 7.0, 20 °C
d(TG4T) (DNA, G4) TGGGGT [7] = assay: fluorescent intercalator displacement; settings: 10 mM sodium cacodylate, 0.5 mM EDTA, pH 7.0, 21-23 °C, thiazole orange displaced, 1 μM neomycin, 1 μM quadruplex

| binding (d(TG4T) (DNA, G4) TGGGGT [1]; isotherm could not be fitted, 300 μM titrant) | Ka1 (d(TG4T) (DNA, G4) TGGGGT [1]; site 1 of 2) | Ka [2] | Ka [3] [M⁻¹] | binding [4] | binding [5] | association constant [6] [M⁻¹] | % fluorescence change (d(TG4T) (DNA, G4) TGGGGT [7]; 30 mM NaCl) | % fluorescence change (d(TG4T) (DNA, G4) TGGGGT [7]; 60 mM KCl) | SMILES |
| --- | --- | --- | --- | --- | --- | --- | --- | --- | --- |
| weak |  |  |  |  |  |  |  |  | NC[C@@H]1O[C@H](O[C@H]2[C@@H](O)[C@H](O[C@@H]3[C@@H](O)[C@H](N)C[C@H](N)[C@H]3O[C@H]3O[C@H](CO)[C@@H](O)[C@H](O)[C@H]3N)O[C@@H]2CO)[C@H](N)[C@@H](O)[C@@H]1O |
|  | 2.10 ± 0.80 × 10^8 M^-1 | 1.23 ± 0.05 × 10^6 M^-1 | 59000 | yes | yes | 723000 | ~ 25% | ~ 15% | NC[C@@H]1O[C@H](O[C@H]2[C@@H](O)[C@H](O[C@@H]3[C@@H](O)[C@H](N)C[C@H](N)[C@H]3O[C@H]3O[C@H](CN)[C@@H](O)[C@H](O)[C@H]3N)O[C@@H]2CO)[C@H](N)[C@@H](O)[C@@H]1O |
